Experiments:
[1] = Agonist activity at NAADP receptor in sea urchin egg homogenate assessed as increase in calcium release by fluo-3 based flurometric assay; assay type: tissue-based, Strongylocentrotus purpuratus
[2] = Desensitization of NAADP receptor in sea urchin egg homogenate assessed as ability to induce time dependent sub-threshold desensitization of calcium release pretreated for 7 mins followed by 1 uM NAADP added by measuring inhibition of calcium release by fluorometric assay; assay type: tissue-based, Strongylocentrotus purpuratus

Row | Compound | EC50 [1] [nM] | IC50 [2] [nM]
1 | C#Cc1nc2c(N)ncnc2n1[C@@H]1O[C@H](COP(=O)(O)OP(=O)(O)OC[C@H]2O[C@@H]([n+]3cc(N=[N+]=[N-])cc(C(=O)[O-])c3)[C@H](O)[C@@H]2O)[C@@H](O)[C@H]1OP(=O)(O)O | 2860 | 99
2 | C#Cc1nc2c(N)ncnc2n1[C@@H]1O[C@H](COP(=O)(O)OP(=O)(O)OC[C@H]2O[C@@H]([n+]3cccc(C(=O)[O-])c3)[C@H](O)[C@@H]2O)[C@@H](O)[C@H]1OP(=O)(O)O | 710 | 12.1
3 | Nc1ncnc2c1ncn2[C@@H]1O[C@H](COP(=O)(O)OP(=O)(O)OC[C@H]2O[C@@H]([n+]3cccc(C(=O)[O-])c3)[C@H](O)[C@@H]2O)[C@@H](O)[C@H]1OP(=O)(O)O | 8 | 0.14

From ChEMBL document CHEMBL4680308, “Chemo-enzymatic synthesis of adenine substituted nicotinic acid adenine dinucleotide phosphate (NAADP) analogs” (Bioorg Med Chem, 2021)
